From article PMC5324734, “DOTA-Derivatives of Octreotide Dicarba-Analogs with High Affinity for Somatostatin sst2,5 Receptors” (Frontiers in Chemistry, 2017)
“And” between values parts separate entries of the source, which are not always exact repeats. Identical values can stand only once. Like-named read-outs stand apart in the source and are kept apart here. Where a SMILES comes first, the peptide text is derived from it. Bridges are numbered along the chain shown (N, C = ends). [ ]: non-standard residue; d: D form. The star is where a group is joined. DOTA = O=C(O)CN1CCN(CC(=O)O)CCN(CC(=O)*)CCN(CC(=O)O)CC1; 1Nal = N[C@@H](Cc1cccc2ccccc12)C(=O)O; Thr(ol) = C[C@@H](O)[C@H](N)CO; AllylGly = C=CC[C@H](N)C(=O)O; Bn = c1ccc(C*)cc1

Legend:
sst2 receptor [1] = target: T1, sst2 receptor (Homo sapiens, UniProt P30874); parameters: method as in Di Cianni et al., 2010; conditions: free (unconjugated) dicarba-analogs; mean ± SEM; data published previously; ref Di Cianni et al., 2010; cited from earlier work
T1 construct: Cell membrane pellets were prepared from human sst2-expressing endogeneous IMR32 cells; host or cells: IMR32 cells (membrane pellets)

sst5 receptor [2] = target: T2, sst5 receptor (Homo sapiens, UniProt P35346); parameters: method as in Di Cianni et al., 2010; conditions: free (unconjugated) dicarba-analogs; mean ± SEM; data published previously; ref Di Cianni et al., 2010; cited from earlier work
T2 construct: host or cells: CHO cells (membrane pellets)

sst2 receptor [3] = target: T1, sst2 receptor; experiment: Somatostatin receptor affinity, displacement of 125I-[LTT]-SRIF-28 (sst2); type: binding; conditions: complete displacement of [Leu8,D-Trp22,125I-Tyr25]-SRIF-28; cell membrane pellets from human sst2-expressing endogeneous IMR32 cells; CEREP; mean ± SEM of three independent repetitions
Description: (§1) Determination of Somatostatin receptors affinity was performed at CEREP (Le Bois l'Evêque, B. P. 3,001, 86,600 Celle l'Evescault, France). Cell membrane pellets were prepared from human sst2-expressing endogeneous IMR32 cells, and sst5-expressing human CHO cells. For each of the tested compounds, complete displacement experiments with the universal SRIF radio-ligand [Leu^8, D-Trp^22, ^125I-Tyr^25]-SRIF-28 (125I-[LTT]-SRIF-28) (2000 Ci/mmol; Anawa, Wangen, Switzerland) were performed. As control, unlabeled seglitide and SRIF-14 were run in parallel, using the same increasing concentrations, with sst2 and sst5 subtypes, respectively. IC50 values were calculated by non-linear regression analysis of the competition curves generated with mean replicate values using Hill equation curve. The analysis was performed using software developed at CEREP (Hill software) and validated by comparison with data generated by the commercial software SigmaPlot 4.0 for Windows.
(§2) The three DOTA conjugated compounds 3b, 4b, and 5b were tested for their ability to bind to the sst2 and sst5 receptors subtypes in complete displacement experiments using the universal somatostatin radioligand [^125I]-[Leu^8,D-Trp^22,Tyr^25]-somatostatin-28. IC50 values were calculated after quantification of the data using a computer-assisted image processing system (Table 1). Receptor subtypes sst2 and sst5 were chosen for preliminary binding assays because of their overexpression in some tumor types (Miller et al., [1995]). In Table 1, the affinities of the parent unconjugated compounds 3a, 4a, and 5a are also reported for comparison (Di Cianni et al., [2010]).

sst5 receptor [4] = target: T2, sst5 receptor; experiment: Somatostatin receptor affinity, displacement of 125I-[LTT]-SRIF-28 (sst5); type: binding; conditions: complete displacement of [Leu8,D-Trp22,125I-Tyr25]-SRIF-28; cell membrane pellets from sst5-expressing human CHO cells; CEREP; mean ± SEM of three independent repetitions
Description: as §1, §2

[5] = native hormone; ref Weckbecker et al., 2003; cited from earlier work
Text: Radiolabeled peptides, targeting specific receptors of malignant cells, in primis GPCRs, have emerged in the past years as one of the most promising tools for diagnosis and therapy of several kinds of metastatic tumors which express these receptors (Ramogida and Orvig, [2013]). Somatostatins SRIF-14 and SRIF-28 are peptide hormones, which have a wide range of pharmacological actions on exocrine and endocrine secretions (Brazeau et al., [1973]) mediated by direct interaction with at least five GPCRs. Chemically, they are -S-S- bridged cyclic peptides containing 14 and 28 amino acids, respective ...

T2 sequence (P35346 whole entry): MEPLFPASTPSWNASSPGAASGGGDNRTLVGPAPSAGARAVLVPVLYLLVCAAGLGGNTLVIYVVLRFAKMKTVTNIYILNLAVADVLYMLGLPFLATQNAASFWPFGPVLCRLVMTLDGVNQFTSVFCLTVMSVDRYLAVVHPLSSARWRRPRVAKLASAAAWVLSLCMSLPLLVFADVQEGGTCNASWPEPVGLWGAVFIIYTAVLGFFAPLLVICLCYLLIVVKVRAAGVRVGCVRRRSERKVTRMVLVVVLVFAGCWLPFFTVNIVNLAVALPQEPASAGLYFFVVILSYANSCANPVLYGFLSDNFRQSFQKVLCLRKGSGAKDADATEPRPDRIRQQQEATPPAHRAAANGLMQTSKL
T1 sequence (P30874 whole entry): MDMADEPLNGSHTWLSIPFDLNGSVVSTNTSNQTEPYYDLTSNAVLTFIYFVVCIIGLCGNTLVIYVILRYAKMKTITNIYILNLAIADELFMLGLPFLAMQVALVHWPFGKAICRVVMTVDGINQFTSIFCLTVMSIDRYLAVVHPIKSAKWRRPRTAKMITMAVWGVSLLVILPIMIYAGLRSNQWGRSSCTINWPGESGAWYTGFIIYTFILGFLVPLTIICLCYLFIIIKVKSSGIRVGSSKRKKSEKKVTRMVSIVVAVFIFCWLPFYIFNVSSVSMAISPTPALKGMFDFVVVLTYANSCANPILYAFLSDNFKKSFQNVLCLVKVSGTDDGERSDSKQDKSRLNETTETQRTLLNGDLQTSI

IC50 (sst2 receptor [3]) | IC50 (sst5 receptor [4]) [nM] | Compound | IC50 (sst2 receptor [1]) [nM] | IC50 (sst5 receptor [2]) [nM] | in vivo half-life [5] [min]
 |  | C[C@@H](O)[C@@H]1NC(=O)[C@H](CCCCN)NC(=O)[C@@H](Cc2c[nH]c3ccccc23)NC(=O)[C@H](Cc2cccc3ccccc23)NC(=O)[C@@H](NC(=O)[C@H](N)Cc2ccccc2)C/C=C\C[C@@H](C(=O)N[C@H](CO)[C@@H](C)O)NC1=O [Compound 3a] (H-[dF][AllylGly][1Nal][dW]KT[AllylGly][Thr(ol)]; staple (Z) 2-7) | 9.6 ± 0.9 | 16.5 ± 4.5 | 
61 ± 5.4 nM | 130 ± 7 | C[C@@H](O)[C@@H]1NC(=O)[C@H](CCCCN)NC(=O)[C@@H](Cc2c[nH]c3ccccc23)NC(=O)[C@H](Cc2cccc3ccccc23)NC(=O)[C@@H](NC(=O)[C@@H](Cc2ccccc2)NC(=O)CN2CCN(CC(=O)O)CCN(CC(=O)O)CCN(CC(=O)O)CC2)C/C=C\C[C@@H](C(=O)N[C@H](CO)[C@@H](C)O)NC1=O [Compound 3b] ({DOTA}-[dF][AllylGly][1Nal][dW]KT[AllylGly][Thr(ol)]; staple (Z) 2-7) |  |  | 
 |  | C[C@@H](O)[C@@H](CO)NC(=O)[C@@H]1C/C=C\C[C@H](NC(=O)[C@H](N)Cc2ccccc2)C(=O)N[C@@H](Cc2ccccc2)C(=O)N[C@H](Cc2c[nH]c3ccccc23)C(=O)N[C@@H](CCCCN)C(=O)N[C@@H](Cc2ccc(OCc3ccccc3)cc2)C(=O)N1 [Compound 4a] (H-[dF][AllylGly]F[dW]KY(Bn)[AllylGly][Thr(ol)]; staple (Z) 2-7) | 46 ± 3 | 12.3 ± 0.3 | 
> 300 nM | 91 ± 7.8 | C[C@@H](O)[C@@H](CO)NC(=O)[C@@H]1C/C=C\C[C@H](NC(=O)[C@@H](Cc2ccccc2)NC(=O)CN2CCN(CC(=O)O)CCN(CC(=O)O)CCN(CC(=O)O)CC2)C(=O)N[C@@H](Cc2ccccc2)C(=O)N[C@H](Cc2c[nH]c3ccccc23)C(=O)N[C@@H](CCCCN)C(=O)N[C@@H](Cc2ccc(OCc3ccccc3)cc2)C(=O)N1 [Compound 4b] ({DOTA}-[dF][AllylGly]F[dW]KY(Bn)[AllylGly][Thr(ol)]; staple (Z) 2-7) |  |  | 
 |  | C[C@@H](O)[C@@H](CO)NC(=O)[C@@H]1C/C=C\C[C@H](NC(=O)[C@H](N)Cc2ccccc2)C(=O)N[C@@H](Cc2cccc3ccccc23)C(=O)N[C@H](Cc2c[nH]c3ccccc23)C(=O)N[C@@H](CCCCN)C(=O)N[C@@H](Cc2ccc(OCc3ccccc3)cc2)C(=O)N1 [Compound 5a] (H-[dF][AllylGly][1Nal][dW]KY(Bn)[AllylGly][Thr(ol)]; staple (Z) 2-7) | 101 ± 9 | 4.9 ± 1 | 
> 100 nM and 160 nM | 12 ± 2.6 | C[C@@H](O)[C@@H](CO)NC(=O)[C@@H]1C/C=C\C[C@H](NC(=O)[C@@H](Cc2ccccc2)NC(=O)CN2CCN(CC(=O)O)CCN(CC(=O)O)CCN(CC(=O)O)CC2)C(=O)N[C@@H](Cc2cccc3ccccc23)C(=O)N[C@H](Cc2c[nH]c3ccccc23)C(=O)N[C@@H](CCCCN)C(=O)N[C@@H](Cc2ccc(OCc3ccccc3)cc2)C(=O)N1 [Compound 5b] ({DOTA}-[dF][AllylGly][1Nal][dW]KY(Bn)[AllylGly][Thr(ol)]; staple (Z) 2-7) |  |  | 
 |  | SRIF-14: native somatostatin peptide hormone, -S-S- bridged cyclic peptide containing 14 amino acids |  |  | < 3
